Test results from US12643882B2, “Inhibitors of human respiratory syncytial virus and metapneumovirus” (priority 2022, dated 2026).
pEC50: −log10 of the molar value. Where two headings read alike, the source gives them in different places.

Legend:
RSV-A2-GFP virus = test: microbe, parasite or virus in culture; type: cell-based, Human Respiratory Syncytial Virus
Method in brief: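 IC50 (GFP-expressing cell counts by Acumen imaging) and CC50 (same-well CellTiter-Glo) were obtained by 4-parameter logistic fitting. Compounds were tested in 10-point 3-fold series for 96 h at 37° C, 5% CO2. Thawed Calu-1 ARF cells were infected at MOI 1.2 with GFP-reporter RSV-A2 in 2% FBS DMEM.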

hMPV-GFP virus = test: microbe, parasite or virus in culture; type: cell-based, human metapneumovirus
Method in brief: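 Antiviral IC50 was derived from imaging counts of GFP-expressing cells, with CC50 from a same-well CellTiter-Glo read, both by 4-parameter logistic fitting. VERO cells plus hMPV-GFP (MOI 1.25) were exposed 48 h at 37 °C to 10-point 3-fold compound dilutions (typical final 40,300–2 nM).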

[1] = human respiratory syncytial virus, Calu-1, 96 h, read-out: RSV EC50, Calu-1 cells infected with RSV-A2-GFP, 96 hrs, GFP-expressing cells counted
[2] = human metapneumovirus, Vero, 48 h, read-out: hMPV EC50, VERO cells infected with hMPV-GFP, 48 hrs, GFP-expressing cells counted
[3] = Calu-1 cells infected with RSV-A2-GFP, 96 hrs, GFP-expressing cells counted, read-out: RSV EC50
[4] = VERO cells infected with hMPV-GFP, 48 hrs, GFP-expressing cells counted, read-out: hMPV EC50

Cc1nn(-c2ncccn2)cc1C(=O)N1C[C@@H]2[C@H](C1)[C@H]2Oc1cc(C(C)(C)N)c(F)c(-c2ccc(F)cc2)n1 [Example 119, ((1R,5S,6s)-6-((4-(2-aminopropan-2-yl)-5-fluoro-6-(4-fluorophenyl)pyridin-2-yl)oxy)-3-azabicyclo[3.1.0]hexan-3-yl)(3-methyl-1-(pyrimidin-2-yl)-1H-pyrazol-4-yl)methanone]
pEC50 (RSV-A2-GFP virus; [1]): > 8.00
pEC50 (hMPV-GFP virus; [2]): < 7.00

Cc1nn(-c2ncccn2)cc1C(=O)N1C[C@@H]2[C@H](C1)[C@H]2Oc1cc(C(C)(C)N)c(Cl)c(-c2ccc(F)cc2)n1 [Example 120, ((1R,5S,6s)-6-((4-(2-aminopropan-2-yl)-5-chloro-6-(4-fluorophenyl)pyridin-2-yl)oxy)-3-azabicyclo[3.1.0]hexan-3-yl)(3-methyl-1-(pyrimidin-2-yl)-1H-pyrazol-4-yl)methanone]
pEC50 (RSV-A2-GFP virus; [1]): > 8.00
pEC50 (hMPV-GFP virus; [2]): < 7.00

COc1nn(-c2ncccn2)cc1C(=O)N1C[C@@H]2[C@H](C1)[C@H]2Oc1cc(C(C)(C)N)c(Cl)c(-c2ccc(F)cc2)n1 [Example 121, ((1R,5S,6s)-6-((4-(2-aminopropan-2-yl)-5-chloro-6-(4-fluorophenyl)pyridin-2-yl)oxy)-3-azabicyclo[3.1.0]hexan-3-yl)(3-methoxy-1-(pyrimidin-2-yl)-1H-pyrazol-4-yl)methanone]
pEC50 (RSV-A2-GFP virus; [3]): > 8.00
pEC50 (hMPV-GFP virus; [4]): < 7.00

COc1nn(-c2ncccn2)cc1C(=O)N1C[C@@H]2[C@H](C1)[C@H]2Oc1cc(C(C)(C)N)cc(N2CCC(C)(C)CC2)n1 [Example 122, ((1R,5S,6s)-6-((4-(2-aminopropan-2-yl)-6-(4,4-dimethylpiperidin-1-yl)pyridin-2-yl)oxy)-3-azabicyclo[3.1.0]hexan-3-yl)(3-methoxy-1-(pyrimidin-2-yl)-1H-pyrazol-4-yl)methanone]
pEC50 (RSV-A2-GFP virus; [1]): > 8.00
pEC50 (hMPV-GFP virus; [2]): < 7.00

Cc1nc(-c2ncccn2)sc1C(=O)N1C[C@@H]2[C@H](C1)[C@H]2Oc1cc(C(C)(C)N)cc(N2CCC(C)(C)CC2)n1 [Example 123, ((1R,5S,6s)-6-((4-(2-aminopropan-2-yl)-6-(4,4-dimethylpiperidin-1-yl)pyridin-2-yl)oxy)-3-azabicyclo[3.1.0]hexan-3-yl)(4-methyl-2-(pyrimidin-2-yl)thiazol-5-yl)methanone]
pEC50 (RSV-A2-GFP virus; [3]): > 8.00
pEC50 (hMPV-GFP virus; [4]): < 7.00

CCc1nn(-c2ncccn2)cc1C(=O)N1C[C@@H]2[C@H](C1)[C@H]2Oc1cc(C(C)(C)N)cc(N2CCC(C)(C)CC2)n1 [Example 124, ((1R,5S,6s)-6-((4-(2-aminopropan-2-yl)-6-(4,4-dimethylpiperidin-1-yl)pyridin-2-yl)oxy)-3-azabicyclo[3.1.0]hexan-3-yl)(3-ethyl-1-(pyrimidin-2-yl)-1H-pyrazol-4-yl)methanone]
pEC50 (RSV-A2-GFP virus; [3]): > 8.00
pEC50 (hMPV-GFP virus; [4]): < 7.00

Cc1nc(-c2ncccn2)sc1C(=O)N1C[C@@H]2[C@H](C1)[C@H]2Oc1cc(C(C)(C)N)cc(N2CCC(C(F)(F)F)CC2)n1 [Example 125, ((1R,5S,6s)-6-((4-(2-aminopropan-2-yl)-6-(4-(trifluoromethyl)piperidin-1-yl)pyridin-2-yl)oxy)-3-azabicyclo[3.1.0]hexan-3-yl)(4-methyl-2-(pyrimidin-2-yl)thiazol-5-yl)methanone]
pEC50 (RSV-A2-GFP virus; [3]): > 8.00
pEC50 (hMPV-GFP virus; [4]): < 7.00

Cc1nc(-c2ncccn2)sc1C(=O)N1C[C@@H]2[C@H](C1)[C@H]2Oc1cc(C(C)(C)N)cc(Cc2ccc(F)cc2)n1 [Example 126, ((1R,5S,6s)-6-((4-(2-aminopropan-2-yl)-6-(4-fluorobenzyl)pyridin-2-yl)oxy)-3-azabicyclo[3.1.0]hexan-3-yl)(4-methyl-2-(pyrimidin-2-yl)thiazol-5-yl)methanone]
pEC50 (RSV-A2-GFP virus; [1]): > 8.00
pEC50 (hMPV-GFP virus; [2]): < 7.00

Cc1nn(-c2ncccn2)cc1C(=O)N1C[C@@H]2[C@H](C1)[C@H]2Oc1cc(C(C)(C)N)cc(N2CCC(C)(C)CC2C)n1 (stereo partly drawn) [Example 127A, ent-((1R,5S,6s)-6-((4-(2-aminopropan-2-yl)-6-(2,4,4-trimethylpiperidin-1-yl)pyridin-2-yl)oxy)-3-azabicyclo[3.1.0]hexan-3-yl)(3-methyl-1-(pyrimidin-2-yl)-1H-pyrazol-4-yl)methanone]
pEC50 (RSV-A2-GFP virus; [3]): > 8.00
pEC50 (hMPV-GFP virus; [4]): < 7.00

Cc1nn(-c2ncccn2)cc1C(=O)N1C[C@@H]2[C@H](C1)[C@H]2Oc1cc(C(C)(C)N)cc(NC(C)C2CCCC2)n1 (stereo partly drawn) [Example 128A, ent-((1R,5S,6s)-6-((4-(2-aminopropan-2-yl)-6-((1-cyclopentylethyl)amino)pyridin-2-yl)oxy)-3-azabicyclo[3.1.0]hexan-3-yl)(3-methyl-1-(pyrimidin-2-yl)-1H-pyrazol-4-yl)methanone]
pEC50 (RSV-A2-GFP virus; [3]): > 8.00
pEC50 (hMPV-GFP virus; [4]): < 7.00

Cc1nn(-c2ncccn2)cc1C(=O)N1C[C@@H]2[C@H](C1)[C@H]2Oc1cc(C(C)(C)N)cc(N2CCC(C(F)(F)F)CC2C)n1 (stereo partly drawn) [Example 129A, ent-((1R,5S,6s)-6-((4-(2-aminopropan-2-yl)-6-(2-methyl-4-(trifluoromethyl)piperidin-1-yl)pyridin-2-yl)oxy)-3-azabicyclo[3.1.0]hexan-3-yl)(3-methyl-1-(pyrimidin-2-yl)-1H-pyrazol-4-yl)methanone]
pEC50 (RSV-A2-GFP virus; [3]): > 8.00
pEC50 (hMPV-GFP virus; [4]): < 7.00

CC(C)(N)c1cc(O[C@H]2[C@@H]3CN(C(=O)c4cn(-c5ncccn5)nc4Cn4nccn4)C[C@@H]32)nc(-c2ccc(F)cc2)c1 [Example 130, (3-((2H-1,2,3-triazol-2-yl)methyl)-1-(pyrimidin-2-yl)-1H-pyrazol-4-yl)((1R,5S,6s)-6-((4-(2-aminopropan-2-yl)-6-(4-fluorophenyl)pyridin-2-yl)oxy)-3-azabicyclo[3.1.0]hexan-3-yl)methanone]
pEC50 (RSV-A2-GFP virus; [1]): > 8.00
pEC50 (hMPV-GFP virus; [2]): < 7.00

CC(C)(N)c1cc(O[C@H]2[C@@H]3CN(C(=O)c4cn(-c5ncccn5)nc4CCF)C[C@@H]32)nc(-c2ccc(F)cc2)c1 [Example 131, ((1R,5S,6s)-6-((4-(2-aminopropan-2-yl)-6-(4-fluorophenyl)pyridin-2-yl)oxy)-3-azabicyclo[3.1.0]hexan-3-yl)(3-(2-fluoroethyl)-1-(pyrimidin-2-yl)-1H-pyrazol-4-yl)methanone]
pEC50 (RSV-A2-GFP virus; [1]): > 8.00
pEC50 (hMPV-GFP virus; [2]): < 7.00

CC(C)(N)c1cc(O[C@H]2[C@@H]3CN(C(=O)c4cn(-c5ncccn5)nc4CC(F)F)C[C@@H]32)nc(-c2ccc(F)cc2)c1 [Example 132, ((1R,5S,6s)-6-((4-(2-aminopropan-2-yl)-6-(4-fluorophenyl)pyridin-2-yl)oxy)-3-azabicyclo[3.1.0]hexan-3-yl)(3-(2,2-difluoroethyl)-1-(pyrimidin-2-yl)-1H-pyrazol-4-yl)methanone]
pEC50 (RSV-A2-GFP virus; [1]): > 8.00
pEC50 (hMPV-GFP virus; [2]): < 7.00
